Columns and labels:
[1] = target: E3 ubiquitin-protein ligase Mdm2 (Homo sapiens, UniProt Q00987); experiment: Binding affinity to HDM2 (unknown origin) by fluorescence polarization peptide displacement assay
[2] = Permeability of the compound in human Caco2 cells; assay type: ADME, cell-based; settings: Caco-2, read-out: permeability
[3] = AUC in mouse at 20 mg/kg, iv and 20 mg/kg, po; assay type: ADME, organism-based; settings: plasma
[4] = Oral bioavailability in mouse at 20 mg/kg; assay type: ADME, organism-based; settings: in vivo
SJSA-1 = experiment: Antiproliferative activity against human SJSA1 cells

Sequence of E3 ubiquitin-protein ligase Mdm2 (Q00987 whole entry): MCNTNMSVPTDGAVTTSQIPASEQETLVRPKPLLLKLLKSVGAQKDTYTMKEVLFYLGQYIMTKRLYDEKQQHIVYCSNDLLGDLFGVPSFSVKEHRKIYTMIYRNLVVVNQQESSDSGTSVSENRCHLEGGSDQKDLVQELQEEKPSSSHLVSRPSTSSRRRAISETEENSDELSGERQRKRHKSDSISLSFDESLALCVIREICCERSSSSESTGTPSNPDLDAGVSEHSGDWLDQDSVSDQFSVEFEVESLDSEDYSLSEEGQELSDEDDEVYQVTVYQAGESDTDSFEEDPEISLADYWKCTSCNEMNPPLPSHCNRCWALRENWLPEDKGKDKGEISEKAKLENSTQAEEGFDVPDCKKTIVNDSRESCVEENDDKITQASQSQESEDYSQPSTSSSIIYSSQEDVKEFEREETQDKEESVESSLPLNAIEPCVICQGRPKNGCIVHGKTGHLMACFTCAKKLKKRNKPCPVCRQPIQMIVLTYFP

In the case of `COCCOc1ccccc1N1CCN(C(=O)[C@]2(Oc3ccc(C(F)(F)F)cc3)CC[C@H](c3ccccc3)N(C(=O)c3cnccc3C(F)(F)F)C2)CC1`, the IC50 [1] is reported as > 10 µM.
With `COc1ccccc1N1CCN(C(=O)[C@]2(Oc3ccc(C(F)(F)F)cc3)CCCN(C(=O)c3cnccc3C(F)(F)F)C2)CC1` the Papp [2] was 15.8 ×10⁻⁶ cm/s, the AUC [3] was 1.9 µM·h and the bioavailability [4] was 19%. It also gave an IC50 (SJSA-1) of 5.5 µM.
Work on `COc1ccc(C2=N[C@@H](c3ccc(Cl)cc3)[C@@H](c3ccc(Cl)cc3)N2C(=O)N2CCNC(=O)C2)c(OC(C)C)c1` [NUTLIN-3] yielded a Papp [2] of 12.6 ×10⁻⁶ cm/s and an IC50 (SJSA-1) of 1.9 µM.
In the case of `C=CC[C@H]1N(C(=O)c2cnccc2C(F)(F)F)CCC[C@@]1(Oc1ccc(C(F)(F)F)cc1)C(=O)N1CCN(c2ccccc2OCCOC)CC1`, the IC50 (SJSA-1) is reported as 1 µM.
Work on `COCCOc1ccccc1N1CCN(C(=O)[C@]2(Oc3ccc(C(F)(F)F)cc3)CCCN(C(=O)c3cnccc3C(F)(F)F)C2)CC1` yielded a Papp [2] of 20.3 ×10⁻⁶ cm/s, an AUC [3] of 1.1 µM·h and a bioavailability [4] of 32%. It also gave an IC50 (SJSA-1) of 4.7 µM.
